Our source for the IC50 values is US20240050428A1 (Cullgen (Shanghai), Inc., priority 2020, published 2024).

Read-outs that look alike come from different tables or passages of the source.

In assay [1] the test system is MV4;11 cells. Nature of the assay: Cell viability assay (CellTiter-Glo) in MV4;11 cells, alone or with gilteritinib. The class given is cell-based. The conditions noted are these: Homo sapiens, MV4-11, 72 h, MV4;11 cells, CellTiter-Glo, read-out: MV4. On the technique in general: Cellular ATP, detected with luciferase, serves as a proxy for viable cell number.
The test system of assay [2] is MOLM-13 cells. Nature of the assay: Cell viability assay (CellTiter-Glo) in MOLM-13 cells, alone or with gilteritinib. The class given is cell-based. The conditions noted are these: Homo sapiens, MOLM-13, 72 h, MOLM-13 cells, CellTiter-Glo.
[3] abbreviates: compound alone (without gilteritinib), three days, 11 IC50.
Where [4] appears, read: with gilteritinib 10 nM, three days, 11 IC50 gilteritinib.
Where [5] appears, read: compound alone (without gilteritinib), three days, read-out: MOLM-13 IC50.
Setting [6] is: with gilteritinib 20 nM, three days, read-out: MOLM-13 IC50 gilteritinib.

For the compound `O=C(COc1ccc2c(c1)CN(C1CCC(=O)NC1=O)C2=O)NCCC(=O)N1CCC(n2cc(-c3cnc4cccc(Br)c4n3)cn2)CC1` (stereo not shown) [GS-022, N-(3-(4-(4-(8-bromoquinoxalin-2-yl)-1H-pyrazol-1-yl)piperidin-1-yl)-3-oxopropyl)-2-((2-(2,6-dioxopiperidin-3-yl)-1-oxoisoindolin-5-yl)oxy)acetamide], the IC50 in assay [1] (with 10 nM gilteritinib, 3 days, 11 IC50 gilteritinib) worked out at 60 nM; in assay [1] (without gilteritinib, 3 days, 11 IC50), 293 nM; in assay [2] (with 20 nM gilteritinib, 3 days, read-out: MOLM-13 IC50 gilteritinib), 106 nM; in assay [2] (without gilteritinib, 3 days, read-out: MOLM-13 IC50) it was 875 nM.
`O=C1CCC(N2Cc3c(Nc4ccnc(Nc5cccc(N6CCC(n7cc(-c8cnc9ccccc9n8)cn7)CC6)c5)n4)cccc3C2=O)C(=O)N1` (stereo not shown) [GS-025, 3-(1-Oxo-4-((2-((3-(4-(4-(quinoxalin-2-yl)-1H-pyrazol-1-yl)piperidin-1-yl)phenyl)amino)pyrimidin-4-yl)amino)isoindolin-2-yl)piperidine-2,6-dione]: the IC50 in assay [1] (setting [3]) was 10 to 100 nM; in assay [1] (setting [4]), < 10 nM; in assay [2] (setting [5]), < 10 nM; in assay [2] (setting [6]) it was < 10 nM.
Take `O=C1CCC(N2Cc3c(Nc4ccnc(Nc5ccc(N6CCC(n7cc(-c8cnc9cccc(Br)c9n8)cn7)CC6)cc5)n4)cccc3C2=O)C(=O)N1` (stereo not shown) [GS-026, 3-(4-((2-((4-(4-(4-(8-Bromoquinoxalin-2-yl)-1H-pyrazol-1-yl)piperidin-1-yl)phenyl)amino)pyrimidin-4-yl)amino)-1-oxoisoindolin-2-yl)piperidine-2,6-dione]: the IC50 in assay [1] (setting [3]), in assay [1] (setting [4]), in assay [2] (setting [5]) and in assay [2] (setting [6]) was > 1000 nM in each case.
Regarding `O=C1CCC(N2Cc3c(Nc4ccnc(Nc5ccc(N6CCC(n7cc(-c8cnc9ccccc9n8)cn7)CC6)cc5)n4)cccc3C2=O)C(=O)N1` (stereo not shown) [GS-027, 3-(1-Oxo-4-((2-((4-(4-(4-(quinoxalin-2-yl)-1H-pyrazol-1-yl)piperidin-1-yl)phenyl)amino)pyrimidin-4-yl)amino)isoindolin-2-yl)piperidine-2,6-dione], the IC50 was > 1000 nM in assay [1] (setting [3]), > 1000 nM in assay [1] (setting [4]), 100 to 1000 nM in assay [2] (setting [5]) and > 1000 nM in assay [2] (setting [6]).
Regarding `O=C1CCC(N2Cc3c(Nc4ccnc(Nc5cccc(CN6CCC(n7cc(-c8cnc9cccc(Br)c9n8)cn7)CC6)c5)n4)cccc3C2=O)C(=O)N1` (stereo not shown) [GS-028, 3-(4-((2-((3-((4-(4-(8-Bromoquinoxalin-2-yl)-1H-pyrazol-1-yl)piperidin-1-yl)methyl)phenyl)amino)pyrimidin-4-yl)amino)-1-oxoisoindolin-2-yl)piperidine-2,6-dione], the IC50 in assay [1] (setting [3]) was in the range of 10 to 100 nM; in assay [1] (setting [4]), 10 to 100 nM; in assay [2] (setting [5]) it was 100 to 1000 nM; in assay [2] (setting [6]), 10 to 100 nM.
In the case of `O=C1CCC(N2Cc3c(Nc4ccnc(Nc5cccc(CN6CCC(n7cc(-c8cnc9ccccc9n8)cn7)CC6)c5)n4)cccc3C2=O)C(=O)N1` (stereo not shown) [GS-029, 3-(1-Oxo-4-((2-((3-((4-(4-(quinoxalin-2-yl)-1H-pyrazol-1-yl)piperidin-1-yl)methyl)phenyl)amino)pyrimidin-4-yl)amino)isoindolin-2-yl)piperidine-2,6-dione], the IC50 in assay [1] (setting [3]), in assay [1] (setting [4]), in assay [2] (setting [5]) and in assay [2] (setting [6]) was > 1000 nM in each case.
Take `O=C1CCC(N2Cc3c(Nc4ccnc(Nc5ccc(CN6CCC(n7cc(-c8cnc9cccc(Br)c9n8)cn7)CC6)cc5)n4)cccc3C2=O)C(=O)N1` (stereo not shown) [GS-030, 3-(4-((2-((4-((4-(4-(8-Bromoquinoxalin-2-yl)-1H-pyrazol-1-yl)piperidin-1-yl)methyl)phenyl)amino)pyrimidin-4-yl)amino)-1-oxoisoindolin-2-yl)piperidine-2,6-dione]: the IC50 in assay [1] (setting [3]), in assay [1] (setting [4]), in assay [2] (setting [5]) and in assay [2] (setting [6]) was > 1000 nM each time.
`O=C1CCC(N2Cc3c(Nc4ccnc(Nc5ccc(CN6CCC(n7cc(-c8cnc9ccccc9n8)cn7)CC6)cc5)n4)cccc3C2=O)C(=O)N1` (stereo not shown) [GS-031, 3-(1-Oxo-4-((2-((4-((4-(4-(quinoxalin-2-yl)-1H-pyrazol-1-yl)piperidin-1-yl)methyl)phenyl)amino)pyrimidin-4-yl)amino)isoindolin-2-yl)piperidine-2,6-dione]: the IC50 was 10 to 100 nM in assay [1] (setting [3]), < 10 nM in assay [1] (setting [4]), 10 to 100 nM in assay [2] (setting [5]) and 10 to 100 nM in assay [2] (setting [6]).
For the compound `O=C1CCC(N2C(=O)c3ccc(NCCCCCC(=O)N4CCC(n5cc(-c6cnc7cccc(N8CCOCC8)c7n6)cn5)CC4)cc3C2=O)C(=O)N1` (stereo not shown) [GS-034, 2-(2,6-Dioxopiperidin-3-yl)-5-((6-(4-(4-(8-morpholinoquinoxalin-2-yl)-1H-pyrazol-1-yl)piperidin-1-yl)-6-oxohexyl)amino)isoindoline-1,3-dione], the IC50 was 100 to 1000 nM in assay [1] (setting [3]), < 10 nM in assay [1] (setting [4]), > 1000 nM in assay [2] (setting [5]) and < 10 nM in assay [2] (setting [6]).
`O=C1CCC(N2C(=O)c3ccc(NCCCCCC(=O)N4CCC(n5cc(-c6cnc7cccc(N8CCNCC8)c7n6)cn5)CC4)cc3C2=O)C(=O)N1` (stereo not shown) [GS-035, 2-(2,6-Dioxopiperidin-3-yl)-5-((6-oxo-6-(4-(4-(8-(piperazin-1-yl)quinoxalin-2-yl)-1H-pyrazol-1-yl)piperidin-1-yl)hexyl)amino)isoindoline-1,3-dione]: the IC50 in assay [1] (setting [3]) is 10 to 100 nM; in assay [1] (setting [4]) it was < 10 nM; in assay [2] (setting [5]), > 1000 nM; in assay [2] (setting [6]), < 10 nM.
As to `CN1CCN(c2cccc3ncc(-c4cnn(C5CCN(C(=O)CCCCCNc6ccc7c(c6)C(=O)N(C6CCC(=O)NC6=O)C7=O)CC5)c4)nc23)CC1` (stereo not shown) [GS-036, 2-(2,6-Dioxopiperidin-3-yl)-5-((6-(4-(4-(8-(4-methylpiperazin-1-yl)quinoxalin-2-yl)-1H-pyrazol-1-yl)piperidin-1-yl)-6-oxohexyl)amino)isoindoline-1,3-dione], the IC50 is > 1000 nM in assay [1] (setting [3]), < 10 nM in assay [1] (setting [4]), > 1000 nM in assay [2] (setting [5]) and 10 to 100 nM in assay [2] (setting [6]).
Regarding `O=C1CCC(N2C(=O)c3ccc(NCCCCCC(=O)N4CCC(n5cc(-c6cnc7cccc(C8CCOCC8)c7n6)cn5)CC4)cc3C2=O)C(=O)N1` (stereo not shown) [GS-043, 2-(2,6-Dioxopiperidin-3-yl)-5-((6-oxo-6-(4-(4-(8-(tetrahydro-2H-pyran-4-yl)quinoxalin-2-yl)-1H-pyrazol-1-yl)piperidin-1-yl)hexyl)amino)isoindoline-1,3-dione], the IC50 in assay [1] (setting [3]) was 10 to 100 nM; in assay [1] (setting [4]) it was < 10 nM; in assay [2] (setting [5]), 10 to 100 nM; in assay [2] (setting [6]), < 10 nM.
For the compound `O=C1CCC(N2C(=O)c3ccc(NCCCCCC(=O)N4CCC(n5cc(-c6cnc7cccc(C8CCNCC8)c7n6)cn5)CC4)cc3C2=O)C(=O)N1` (stereo not shown) [GS-044, 2-(2,6-dioxopiperidin-3-yl)-5-((6-oxo-6-(4-(4-(8-(piperidin-4-yl)quinoxalin-2-yl)-1H-pyrazol-1-yl)piperidin-1-yl)hexyl)amino)isoindoline-1,3-dione], the IC50 was 10 to 100 nM in assay [1] (setting [3]), < 10 nM in assay [1] (setting [4]), 10 to 100 nM in assay [2] (setting [5]) and < 10 nM in assay [2] (setting [6]).
